These results are taken from US4341792A, “Heterobicyclic keto- and amino-acids, esters and amides” (Pfizer Inc., priority 1979, dated 1982).

Assay [1] has as its system pyruvate dehydrogenase enzyme (PDH). The assay is described as follows: Increase in proportion of active form of pyruvate dehydrogenase (PDHa/PDHt) in hearts of fat-fed rats in vivo. To be noted: fat-fed rat heart. As for the experimental part: (2) increase the proportion of the active form of the enzyme pyruvate dehydrogenase (PDH) in organs of animals (e.g., rat heart) in vivo; and The ability of the compounds of this invention to increase the proportion of the active form of the pyruvate dehydrogenase enzyme has been measured in the following test: Rats fed on a high fat diet as in the previous test, are treated either with placebo or with the compound of formula (I) or (II) by sub-cutaneous or intravenous injection or by oral administration. After 11/2 hours the rat hearts are removed and homogenized under conditions which minimize changes in the proportion of the pyruvate dehydrogenase enzyme (PDH) which is present in the active form, as described by Whitehouse and Randle, Biochem, J., 134, 651 (1973). The total amount of the enzyme present (PDHt) and the amount which is present in the active form (PDHa) are assessed by a method similar to that described by Taylor et al., J. Biol. Chem., 248, 73 (1973). The fat-feeding process is found to depress the ratio […] from a normal value of about 0.7 to a value in the range from 0.1 to 0.3. Treatment of fat-fed rats with the compounds of formula (I) or (II) parenterally increases this ratio in a dose-dependent manner. The increase in […] ration affected by certain of the compounds when administered by subcutaneous infection at the dosage indicated is shown in the following table: […]

For assay [2], the system named is diaphragm tissue from fat-fed rats (pyruvate oxidation). The assay is described as follows: Pyruvate oxidation by diaphragm tissue from fat-fed rats in vitro (carbon-14 from labelled pyruvate into carbon dioxide). It is filed as cell-based. Particulars: fat-fed rat diaphragm, read-out: % Stimulation (pyruvate oxidation); for activation at 500 µM: concentration 0.5 m. mol.; for activation at 2000 µM: concentration 2 m. mol.; for activation at 1000 µM: concentration 1 m. mol. On the procedure:
(1) increase the oxidation of glucose and/or pyruvate by isolated rat muscle preparations in vitro; The compounds of formulae (I) and (II) have been tested for their ability to increase the oxidation of glucose and/or pyruvate as follows: Diaphragm tissue is obtained from rats fed on a high fat diet similar to `Diet B` described by Zaragoza and Felber, Horm. Metab. Res., 2, 323 (1970). Pyruvate oxidation by such tissue is assessed by measurement of the rate of incorporation of carbon-14 from carbon-14-labelled pyruvate into carbon dioxide in vitro, as described by Bringold, Eur. J. Biochem., 26, 360 (1972). The rate of pyruvate oxidation is depressed by 50-75% compared with that by diaphragm tissue from rats fed on a normal diet. When the compounds of the invention are added to the medium, they are found to stimulate pyruvate oxidation by diaphragm tissue from fat-fed rats in a dose dependent manner.

The mark [3] stands for this setting: 0.6 mmol/kg subcutaneous, placebo 0.12.

Take `COCCNC(=O)C(N)c1ccc2c(c1)CCO2.Cl` (racemic) [Example 7, DL-N-(2-Methoxyethyl)-α-amino-2,3-dihydro-5-benzo(b)furanylacetamide Hydrochloride]: the PDHa/PDHt ratio in assay [1] (setting [3]) is on record as 0.47. Also, in assay [2], the activation at 500 µM was determined as 23%. For the molecule `NC(=O)C(N)c1ccc2occc2c1` (racemic) [Example 10, DL-2-[5-Benzo(b)furanyl]glycinamide], the activation at 500 µM in assay [2] worked out at 46%.

Take `NC(C(=O)O)c1ccc2c(c1)CCS2` (racemic) [Example 13, DL-2-[2,3-Dihydro-5-benzo(b)thienyl]glycine]: the activation at 500 µM in assay [2] is 21%. `O=C(O)C(=O)c1ccc2c(c1)CCCO2` [Example 4, 6-Chromanylglyoxylic Acid]: the activation at 500 µM in assay [2] turned out to be 69%. In the case of `O=C(O)C(=O)c1ccc2oc(-c3ccccc3)cc2c1` [Example 11, 2-Phenyl-5-benzo(b)furanyl Glyoxylic Acid], the PDHa/PDHt ratio in assay [1] (0.3 mmol/kg subcutaneous, placebo 0.20) is 0.26. Besides, the activation at 2000 µM in assay [2] came out at 99%. Consider `NC(C(=O)O)c1ccc2occc2c1` (racemic) [Example 9, DL-2-[5-Benzo(b)furanyl]glycine], for which the activation at 500 µM in assay [2] was 42%. Regarding `O=C(O)C(=O)c1ccc2occc2c1` [Example 8, 5-Benzo(b)furanylglyoxlic Acid], in assay [2], the activation at 500 µM turned out to be 95%. Take `Cc1cc2cc(C(=O)C(=O)O)ccc2o1` [Example 12, 2-Methyl-5-benzo(b)furanylglyoxylic Acid]: the PDHa/PDHt ratio in assay [1] (0.3 mmol/kg subcutaneous, placebo 0.12) stood at 0.36. Besides, the activation at 500 µM in assay [2] came to 58%.

Regarding `O=C(O)C(=O)c1ccc2c(c1)CCO2` [Example 3, 2,3-Dihydro-5-benzo(b)furanylglyoxylic Acid], the PDHa/PDHt ratio in assay [1] (0.3 mmol/kg subcutaneous, placebo 0.11) is reported as 0.21. Further, the activation at 1000 µM in assay [2] was found to be 128%.

Take `O=C(O)C(=O)c1ccc2c(c1)CCS2` [Example 2, 2,3-Dihydro-5-benzo(b)thienylglyoxylic Acid]: the PDHa/PDHt ratio in assay [1] (1.2 mmol/kg subcutaneous, placebo 0.27) was found to be 0.48. Further, the activation at 1000 µM in assay [2] was determined as 105%. `NC(=O)C(N)c1ccc2c(c1)CCO2` (racemic) [Example 6, DL-α-Amino-2,3-dihydro-5-benzo(b)furanylacetamide]: in assay [1] (setting [3]), the PDHa/PDHt ratio was 0.46. For the same molecule, in assay [2], the activation at 500 µM came out at 29%. On to `NC(=O)C(N)c1ccc2c(c1)CCS2` (racemic) [Example 15, DL-2-[2,3-Dihydro-5-benzo(b)thienyl]glycinamide], for which the activation at 2000 µM in assay [2] amounted to 11%.
